Measurements from US10308631B2, “Selective anti-cancer compounds” (NATIONAL UNIVERSITY OF SINGAPORE, priority 2015, dated 2019).

How the values were obtained:
[1] = tested on: mitotic marker phospho-histone H3 at serine 10 (pH3 (Ser10)) in transformed BJ cells; assay: Immunoblot analysis of mitotic marker pH3 (Ser10), derivatives of Compound 1; assay type: cell-based; details: Homo sapiens, band intensities pH3(Ser10)/β-actin vs DMSO control, 24 h
Description: (§1) FIG. 4 compares the ability of Compound 1 (a131), and various derivatives thereof (referred to using their code numbers for brevity; the designated chemical compound for each code number is provided in the chemical examples section below), to inhibit autophagy and/or mitosis. BJ transformed cells were treated with 5 μM of various Compounds as shown, for 24 h. Cells were harvested and total lysates were analysed by detecting the mitotic marker phospho-histone H3 at serine 10 (pH3 (Ser10)) and the autophagosome marker LC3. Antibodies raised against β-actin were used as an internal loading control.
(§2) The ability of Compound 1 to inhibit lysosome function was examined using immunoblotting. HeLa cervical cancer cells were cultured in Dulbecco's modified Eagle's medium (DMEM) supplemented with 10% Fetal Bovine Serum (FBS, Thermo Scientific). The HeLa cells were treated with different concentrations of Compound 1 (0.625, 1.25, 2.5, 5 and 10 μM, dimethyl sulfoxide (DMSO, Kanto Kagaku)), chloroquine (CQ) (1.25, 2.5, 10, 50 and 100 μM, DMSO) or DMSO for 6 h. Then, the treated cells were harvested and lysed in 1% triton lysis buffer [25 mM Tris HCl (pH8.0), 150 mM NaCl, 1% triton-X100, 1 mM dithiothreitol (DTT), protease inhibitor mix (Complete Mini, Roche) and phosphatase inhibitor (PhosphoStop, Roche)]. The proteins in total lysates were boiled with sample buffer (60 mM Tris-HCl (pH 6.8), 25% glycerol, 2% SDS, 14.4 mM 2-mercaptoethanol, 0.1% bromophenol blue) and resolved by 14% tris-glycine sodium dodecyl sulfate polyacrylamide gel electrophoresis (SDS-PAGE) and subjected to immunoblot analysis.
(§3) Defects in lysosome function and inhibition of autophagy can be measured by accumulation of LC3-phosphatidylethanolamine conjugated non-soluble form (LC3-II), which are converted from soluble LC3-I. Thus, antibodies raised against LC3 (Cell Signaling, Cat#4108) were used to determine lysosomal function and integrity. Antibodies raised against phosphorylated histone H3 at serine 10 residue (pH3) (Cell signaling, Cat#3377) were used as the marker for mitotic dysfunction and arrest. Antibodies raised against β-actin (Millipore, Cat#MAB1501) were used as an internal loading control. The inhibitory ability of Compound 1 was also quantitatively compared to CQ.
(§4) Derivatives of Compound 1 were tested to see if they had similar dual activity, or presented only one of the activities of Compound 1. The protocol for immunoblot analysis described in Biology Example 1 was applied to the additional indicated compounds.
(§5) Activities of compounds were determined by two independent experiments. First, Compounds were classified according to the intensity of increase in each of the mitotic marker phospho-histone H3 at serine 10 (pH3 (Ser 10)) and the autophagosome marker LC3, respectively, at 1.25 μM, when compared with 1.25 μM Compound 1 (a131).
(§6) Compounds classified “++” on either “mitosis” or “inhibits lysosome” show similar increase in each of the mitotic marker phospho-histone H3 at serine 10 (pH3 (Ser10)) and the autophagosome marker LC3, respectively, at 2.5 μM, when compared with 1.25 μM Compound 1 (a131); and compounds classified “+” on either “mitosis” or “inhibits lysosome” show similar increase in each of the mitotic marker phospho-histone H3 at serine 10 (pH3 (Ser10)) and the autophagosome marker LC3, respectively, at a concentration range of 5-10 μM, when compared with 1.25 μM Compound 1 (a131).
Compounds classified “+/−” on either “mitosis” or “inhibits lysosome” show less increase in each of the mitotic marker phospho-histone H3 at serine 10 (pH3 (Ser10)) and the autophagosome marker LC3, respectively, at a concentration range of 5-10 μM, when compared with 1.25 μM Compound 1 (a131).
Next, the ability of Compound 1 and its derivatives to induce mitotic arrest in transformed BJ cells was quantified as the fold induction of band intensities [pH3(Ser10)/β-actin] in comparison with DMSO control. […]

[2] = tested on: autophagosome marker LC3 (LC3 II/LC3 I) in transformed BJ cells; assay: Immunoblot analysis of autophagosome marker LC3 (lysosome function), derivatives of Compound 1; assay type: cell-based; details: Homo sapiens, band intensities LC3 II/LC3 I vs DMSO control, 24 h
Description: as §1, §2, §3, §4, §5, §6
Compounds classified “+/−” on either “mitosis” or “inhibits lysosome” show less increase in each of the mitotic marker phospho-histone H3 at serine 10 (pH3 (Ser10)) and the autophagosome marker LC3, respectively, at a concentration range of 5-10 μM, when compared with 1.25 μM Compound 1 (a131). […]

[3] = tested on: pH3 (Ser10) and LC3 in BJ transformed cells; assay: Immunoblot classification of compounds by pH3 and LC3 (FIG. 4); assay type: cell-based, human; details: 5 μM, 24 h
Description: as §1, §4

[4] = tested on: oncogene-transformed BJ cells; assay: PI staining and FACS analysis, sub-G1 cell death; assay type: cell-based, human; details: for cell death (population of cells in sub-G1) / cell death: 48 h; for cell death (population of cells in sub-G1): Compound 1 2.5 μM, other Group 1 and Group 2 compounds 10 μM, Compound 3 5 μM (FIG. 5A)
Description: FIG. 5A is a histogram showing the ability of Compound 1 (a131) and its derivatives Compound 2 (a156), Compound 16 (b5), Compound 17 (b9), all in Group 1; Compound 29 (a219), Compound 13 (b12), Compound 11 (b15), Compound 12 (b16), Compound 25 (a166), all in Group 2; and Compound 3 (a159) from Group 3, to induce cancer selective cell death. Isogenic non-transformed (normal) and oncogene-transformed BJ cells were treated with each compound for 48 h and cells were stained with propidium iodide (PI) and subjected to FACS analysis. The percentage of cells in sub-G1 phase is indicative of the extent of cell death. […] In contrast, the ability of the compounds in Groups 2 and 3 to induce cancer selective cell death was markedly compromised (or reduced).
The Compounds 25 (a166) and 3 (a159) were selected from Group 2 and Group 3, respectively. Isogenic non-transformed normal and oncogene-transformed BJ cells were treated with or without 0.3 μM or 0.6 μM Compound 3 (a159) alone or together with 1.25 μM Compound 25 (a166) for 48 h. Cells were stained with propidium iodide (PI) and subjected to FACS analysis.
Isogenic non-transformed and oncogene-transformed human fibroblast BJ cell lines were cultured in DMEM supplemented with 10% FBS. The cells were treated with Compound 1 (2.5 μM, DMSO). 48 h after treatment, the cells were fixed with ethanol at −30° C. overnight and stained with 20 μg/mL propidium iodide (PI) and 10 μg/mL RNase A for 30 min. These cells were then subjected to flow cytometry (FACS) analysis using MACSQuant (Miltenyi Biotec) to count the percentage of apoptotic cells in sub-G1 peak.
The above procedure was repeated for Group 1 Compounds 2, 16 and 17, Group 2 Compounds 29, 13, 11, 12 and 25 at a concentration of 10 μM, and Group 3 Compound 3 at a concentration of 5 μM.
Isogenic non-transformed normal and oncogene-transformed BJ cells were cultured as in Biology Example 3. The cells were treated with a combination of Compound 3 (Group 3, at a concentration of 0.3 μM or 0.6 μM), and Compound 25 (Group 2, at a concentration of 1.25 μM) for 48 hours. Controls using DMSO, Compound 3 and Compound 25 alone (at the concentrations mentioned above) were also performed.

Q: With `N#C/C(=C\c1cccc2ncccc12)c1c[nH]c2ccccc12` [Compound 3, (Z)-2-(1H-indol-3-yl)-3-(quinolin-5-yl)acrylonitrile] as the molecule, how does the fold induction at 5 µM [1] read?
A: The fold induction at 5 µM was 10.5.

Q: And the fold induction at 5 µM [2]?
A: The fold induction at 5 µM was 0.7.

Q: What about the “Inhibition of lysosome function and/or mitosis (FIG. 4)” value (from here on “Inhibition”) [3] of the same molecule?
A: Its value is “inhibit mitosis only”.

Q: And the “cell death (population of cells in sub-G1)” value [4]?
A: Its value is “significantly induced cell death”.

Q: What about the cell death ([4]; Compound 3 alone at 0.3 μM) of the same molecule?
A: Its cell death is “negligible effect”.

Q: And the cell death ([4]; Compound 3 alone at 0.6 μM)?
A: The cell death was −15%.

Q: For `CN1CCN(CC(=O)n2cc(/C(C#N)=C/c3cccc4cnccc34)c3ccccc32)CC1` [Compound 16, (Z)-3-(isoquinolin-5-yl)-2-(1-(2-(4-methylpiperazin-1-yl)acetyl)-1H-indol-3-yl)acrylonitrile], which fold induction at 5 µM [1] is on record?
A: The fold induction at 5 µM was 11.8.

Q: What about the fold induction at 5 µM [2] of the same molecule?
A: Its fold induction at 5 µM is 5.

Q: What about the “Inhibition” value [3] of the same molecule?
A: The value was “exhibit the dual properties of inhibiting both lysosome function and mitosis”.

Q: What about the “cell death (population of cells in sub-G1)” value [4] of the same molecule?
A: The value was “selectively induced cell death in oncogene-transformed BJ cells while sparing normal counterparts”.

Q: How did the fold induction at 5 µM [1] turn out when `N#C/C(=C\c1cccc2cnccc12)c1c[nH]c2ccccc12` [Compound 1, (Z)-2-(1H-indol-3-yl)-3-(isoquinolin-5-yl)acrylonitrile] was run?
A: Its fold induction at 5 µM is 7.3.

Q: And the fold induction at 5 µM [2]?
A: The fold induction at 5 µM was 5.

Q: What about the “Inhibition” value [3] of the same molecule?
A: The value was “exhibit the dual properties of inhibiting both lysosome function and mitosis”.

Q: And the “population of cells in sub-G1” value ([4]; 2.5 and 5 μM, 24 h (FIG. 9A panels g-i))?
A: Its value is “massive increase in population of oncogene-transformed BJ cells in sub-G1”.

Q: What about the “cell death (population of cells in sub-G1)” value [4] of the same molecule?
A: The value was “selectively induced cell death in oncogene-transformed BJ cells while sparing normal counterparts”.
